# Data published in ChEMBL document CHEMBL4616591, “Propargylamine-derived multi-target directed ligands for Alzheimer's disease therapy” (Bioorg Med Chem Lett, 2020).
# How the values were obtained:
# Acetylcholinesterase [1] = molecular target: T1, Acetylcholinesterase (Electrophorus electricus, UniProt O42275)
# Description: (§1) Inhibition of electric eel AChE by Ellman's method
# Acetylcholinesterase [2] = molecular target: Acetylcholinesterase (Torpedo californica, UniProt P04058); test: Inhibition of Torpedo californica AChE using acetylthiocholine chloride as substrate peincubated for 15 mins followed by substrate addition measured after 5 mins by Ellman's method; design: species or system Tetronarce californica
# Acetylcholinesterase (Torpedo californica, UniProt P04058), sequence (P04058 whole entry): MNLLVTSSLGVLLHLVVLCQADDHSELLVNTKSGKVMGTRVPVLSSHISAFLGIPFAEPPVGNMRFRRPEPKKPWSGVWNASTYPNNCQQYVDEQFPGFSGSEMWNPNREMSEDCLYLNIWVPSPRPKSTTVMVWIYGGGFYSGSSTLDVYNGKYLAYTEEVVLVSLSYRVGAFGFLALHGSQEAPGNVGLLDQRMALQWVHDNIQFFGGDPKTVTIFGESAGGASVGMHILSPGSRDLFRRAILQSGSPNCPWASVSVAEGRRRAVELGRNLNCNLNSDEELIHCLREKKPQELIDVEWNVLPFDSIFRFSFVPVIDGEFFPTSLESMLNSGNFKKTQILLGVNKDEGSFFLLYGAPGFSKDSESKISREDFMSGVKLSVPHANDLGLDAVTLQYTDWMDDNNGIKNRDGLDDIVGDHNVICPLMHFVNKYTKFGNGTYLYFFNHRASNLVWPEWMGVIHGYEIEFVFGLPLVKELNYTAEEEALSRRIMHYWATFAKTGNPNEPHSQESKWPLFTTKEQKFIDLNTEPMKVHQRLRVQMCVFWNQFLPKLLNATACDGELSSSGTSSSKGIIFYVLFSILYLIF
# [3] = molecular target: Amyloid-beta precursor protein (Homo sapiens) (UniProt P05067); test: Inhibition of self-induced amyloid beta (1 to 42) (unknown origin) aggregation at 100 uM after 24 hrs by ThT fluorescence assay relative to control
# Amyloid-beta precursor protein (Homo sapiens), sequence (P05067 whole entry): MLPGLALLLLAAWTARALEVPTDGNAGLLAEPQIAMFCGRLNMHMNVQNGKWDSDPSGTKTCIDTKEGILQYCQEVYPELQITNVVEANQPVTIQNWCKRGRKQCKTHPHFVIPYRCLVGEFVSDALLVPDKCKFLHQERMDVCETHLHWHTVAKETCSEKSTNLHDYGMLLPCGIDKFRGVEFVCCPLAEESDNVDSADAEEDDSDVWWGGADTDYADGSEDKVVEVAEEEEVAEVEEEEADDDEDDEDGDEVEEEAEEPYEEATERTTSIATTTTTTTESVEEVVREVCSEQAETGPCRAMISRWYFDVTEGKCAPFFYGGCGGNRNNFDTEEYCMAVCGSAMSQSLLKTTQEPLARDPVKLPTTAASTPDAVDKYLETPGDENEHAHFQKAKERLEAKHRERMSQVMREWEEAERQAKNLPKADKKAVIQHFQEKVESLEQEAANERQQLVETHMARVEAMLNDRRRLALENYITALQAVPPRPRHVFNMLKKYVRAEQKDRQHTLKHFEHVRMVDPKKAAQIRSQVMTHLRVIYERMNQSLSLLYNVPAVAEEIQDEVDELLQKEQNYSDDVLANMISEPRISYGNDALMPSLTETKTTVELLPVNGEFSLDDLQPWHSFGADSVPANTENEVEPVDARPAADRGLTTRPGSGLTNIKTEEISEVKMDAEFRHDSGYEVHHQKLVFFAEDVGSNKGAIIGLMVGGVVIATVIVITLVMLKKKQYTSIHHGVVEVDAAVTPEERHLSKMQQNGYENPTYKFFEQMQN
# [4] = molecular target: Amyloid-beta precursor protein (Homo sapiens) (UniProt P05067); test: Inhibition of self-induced amyloid beta (1 to 42) (unknown origin) aggregation at 100 uM after 24 hrs in presence of copper by ThT fluorescence assay relative to control
# Cholinesterase [5] = molecular target: T2, Cholinesterase (Equus caballus, UniProt P81908); test: Inhibition of equine serum BuChE by Ellman's method
# T2 sequence (P81908 whole entry): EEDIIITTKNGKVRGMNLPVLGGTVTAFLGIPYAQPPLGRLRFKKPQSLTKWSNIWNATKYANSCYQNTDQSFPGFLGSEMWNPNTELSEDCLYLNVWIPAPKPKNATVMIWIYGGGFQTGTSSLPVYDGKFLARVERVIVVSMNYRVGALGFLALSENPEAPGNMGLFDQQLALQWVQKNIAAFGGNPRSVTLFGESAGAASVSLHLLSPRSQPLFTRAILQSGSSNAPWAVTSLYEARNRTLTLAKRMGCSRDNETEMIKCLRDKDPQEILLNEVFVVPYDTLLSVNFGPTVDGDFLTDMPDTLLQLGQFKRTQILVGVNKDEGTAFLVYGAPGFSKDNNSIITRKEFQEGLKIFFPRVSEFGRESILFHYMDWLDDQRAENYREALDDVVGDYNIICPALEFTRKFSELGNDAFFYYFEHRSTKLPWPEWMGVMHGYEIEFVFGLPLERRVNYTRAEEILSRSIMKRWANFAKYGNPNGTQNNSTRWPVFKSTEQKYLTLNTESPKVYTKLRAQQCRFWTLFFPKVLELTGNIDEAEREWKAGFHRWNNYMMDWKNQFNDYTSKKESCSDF
# Acetylcholinesterase [6] = molecular target: T1, Acetylcholinesterase; remark: listed apart in the source
# Description: as §1
# Acetylcholinesterase [7] = molecular target: T1, Acetylcholinesterase; remark: listed apart in the source
# Description: Inhibition of electric eel AChE using acetylthiocholine chloride as substrate peincubated for 15 mins followed by substrate addition measured at 1 min interval by Ellman's method
# [8] = molecular target: T3, Amine oxidase [flavin-containing] A (Rattus norvegicus, UniProt P21396); test: In-vivo inhibition of MAO A in rat brain at 26 mg/kg, po relative to control; format: functional, organism-based
# T3 sequence (P21396 whole entry): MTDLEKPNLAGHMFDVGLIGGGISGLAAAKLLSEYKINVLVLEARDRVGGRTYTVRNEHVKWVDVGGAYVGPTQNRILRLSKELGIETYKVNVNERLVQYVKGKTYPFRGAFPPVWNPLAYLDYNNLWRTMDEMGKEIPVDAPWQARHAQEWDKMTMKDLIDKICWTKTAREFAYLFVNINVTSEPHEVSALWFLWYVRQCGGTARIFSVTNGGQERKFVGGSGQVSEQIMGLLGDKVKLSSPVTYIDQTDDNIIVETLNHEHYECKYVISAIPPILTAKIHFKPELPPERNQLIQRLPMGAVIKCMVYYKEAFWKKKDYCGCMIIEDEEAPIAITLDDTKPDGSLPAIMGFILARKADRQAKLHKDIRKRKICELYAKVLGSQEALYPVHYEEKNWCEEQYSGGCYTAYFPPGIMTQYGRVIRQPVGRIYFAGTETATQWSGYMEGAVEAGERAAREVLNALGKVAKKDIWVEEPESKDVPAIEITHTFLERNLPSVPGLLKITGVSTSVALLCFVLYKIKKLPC
# [9] = molecular target: T4, Amine oxidase [flavin-containing] B (Rattus norvegicus, UniProt P19643); test: In-vivo inhibition of MAO B in rat brain at 26 mg/kg, po relative to control; format: functional, organism-based
# T4 sequence (P19643 whole entry): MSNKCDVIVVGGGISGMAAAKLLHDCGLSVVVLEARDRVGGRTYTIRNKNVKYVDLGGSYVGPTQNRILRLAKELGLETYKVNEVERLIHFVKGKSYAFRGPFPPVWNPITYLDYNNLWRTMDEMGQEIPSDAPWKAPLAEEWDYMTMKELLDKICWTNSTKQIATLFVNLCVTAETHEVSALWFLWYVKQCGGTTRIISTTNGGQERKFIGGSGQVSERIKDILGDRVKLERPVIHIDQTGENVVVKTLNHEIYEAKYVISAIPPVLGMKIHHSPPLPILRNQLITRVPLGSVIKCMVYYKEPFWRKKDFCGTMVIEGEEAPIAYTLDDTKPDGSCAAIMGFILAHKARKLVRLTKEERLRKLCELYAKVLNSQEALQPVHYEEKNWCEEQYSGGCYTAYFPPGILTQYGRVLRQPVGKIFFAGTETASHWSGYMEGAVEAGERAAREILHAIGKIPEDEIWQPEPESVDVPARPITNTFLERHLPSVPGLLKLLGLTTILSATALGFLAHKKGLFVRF
# Cholinesterase [10] = molecular target: T2, Cholinesterase; test: Inhibition of equine serum BuChE using butylthiocholine chloride as substrate peincubated for 15 mins followed by substrate addition measured at 1 min interval by Ellman's method
# Acetylcholinesterase [11] = molecular target: T5, Acetylcholinesterase (Homo sapiens, UniProt P22303); test: Inhibition of human AChE using acetylthiocholine chloride as substrate peincubated for 15 mins followed by substrate addition measured at 1 min interval by Ellman's method
# T5 sequence (P22303 whole entry): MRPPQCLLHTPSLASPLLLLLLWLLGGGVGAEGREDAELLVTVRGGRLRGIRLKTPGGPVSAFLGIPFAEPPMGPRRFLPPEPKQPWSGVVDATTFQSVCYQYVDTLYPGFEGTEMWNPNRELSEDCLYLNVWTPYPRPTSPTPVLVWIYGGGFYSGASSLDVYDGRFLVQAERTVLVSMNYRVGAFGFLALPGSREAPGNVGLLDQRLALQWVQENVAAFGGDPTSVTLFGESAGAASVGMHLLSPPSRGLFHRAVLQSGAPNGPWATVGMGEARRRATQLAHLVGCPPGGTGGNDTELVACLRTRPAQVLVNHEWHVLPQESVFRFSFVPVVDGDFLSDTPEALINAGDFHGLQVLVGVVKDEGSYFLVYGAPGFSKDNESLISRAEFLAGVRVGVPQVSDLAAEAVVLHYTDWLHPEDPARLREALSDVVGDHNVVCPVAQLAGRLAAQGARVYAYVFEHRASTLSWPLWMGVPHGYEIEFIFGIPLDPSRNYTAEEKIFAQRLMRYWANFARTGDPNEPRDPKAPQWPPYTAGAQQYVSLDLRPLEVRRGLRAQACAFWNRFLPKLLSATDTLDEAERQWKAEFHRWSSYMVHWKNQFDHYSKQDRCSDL
# Acetylcholinesterase [12] = molecular target: T5, Acetylcholinesterase; conditions: 0.6 mg/kg
# [13] = molecular target: Cholinesterase (Homo sapiens) (UniProt P06276); conditions: 0.6 mg/kg
# Cholinesterase (Homo sapiens), sequence (P06276 whole entry): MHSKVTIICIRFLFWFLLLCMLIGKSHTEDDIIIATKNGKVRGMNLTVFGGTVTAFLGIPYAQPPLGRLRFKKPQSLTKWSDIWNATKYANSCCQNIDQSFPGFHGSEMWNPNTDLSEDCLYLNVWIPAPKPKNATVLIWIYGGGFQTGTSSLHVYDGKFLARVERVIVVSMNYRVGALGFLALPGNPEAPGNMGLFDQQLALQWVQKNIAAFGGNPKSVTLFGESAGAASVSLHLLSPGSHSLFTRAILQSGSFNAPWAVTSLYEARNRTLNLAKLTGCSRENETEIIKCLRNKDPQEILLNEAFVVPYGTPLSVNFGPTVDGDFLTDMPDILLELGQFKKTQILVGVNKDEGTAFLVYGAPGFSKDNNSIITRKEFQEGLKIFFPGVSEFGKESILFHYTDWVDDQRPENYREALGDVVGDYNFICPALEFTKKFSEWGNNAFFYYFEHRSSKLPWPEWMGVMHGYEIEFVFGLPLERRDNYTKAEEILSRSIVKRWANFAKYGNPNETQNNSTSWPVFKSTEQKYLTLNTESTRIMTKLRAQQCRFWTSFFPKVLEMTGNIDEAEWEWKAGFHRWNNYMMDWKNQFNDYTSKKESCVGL
# [14] = molecular target: T6, Amine oxidase [flavin-containing] A (Homo sapiens, UniProt P21397); test: Inhibition of human MAO A
# T6 sequence (P21397 whole entry): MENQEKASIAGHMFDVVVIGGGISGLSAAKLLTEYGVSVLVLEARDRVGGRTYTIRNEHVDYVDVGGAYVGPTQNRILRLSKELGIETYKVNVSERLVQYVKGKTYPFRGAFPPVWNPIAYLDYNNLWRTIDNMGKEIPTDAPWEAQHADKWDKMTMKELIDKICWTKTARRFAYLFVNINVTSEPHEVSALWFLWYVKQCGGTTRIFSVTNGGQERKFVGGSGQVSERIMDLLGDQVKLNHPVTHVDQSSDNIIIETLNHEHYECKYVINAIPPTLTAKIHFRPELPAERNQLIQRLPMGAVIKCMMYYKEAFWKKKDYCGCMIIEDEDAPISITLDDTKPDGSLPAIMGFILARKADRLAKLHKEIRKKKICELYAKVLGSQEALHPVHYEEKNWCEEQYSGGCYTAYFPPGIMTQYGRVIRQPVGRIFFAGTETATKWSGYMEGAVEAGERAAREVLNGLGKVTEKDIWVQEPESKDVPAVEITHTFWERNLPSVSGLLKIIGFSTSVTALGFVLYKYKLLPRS
# [15] = molecular target: T7, Amine oxidase [flavin-containing] B (Homo sapiens, UniProt P27338); test: Inhibition of human MAO B
# T7 sequence (P27338 whole entry): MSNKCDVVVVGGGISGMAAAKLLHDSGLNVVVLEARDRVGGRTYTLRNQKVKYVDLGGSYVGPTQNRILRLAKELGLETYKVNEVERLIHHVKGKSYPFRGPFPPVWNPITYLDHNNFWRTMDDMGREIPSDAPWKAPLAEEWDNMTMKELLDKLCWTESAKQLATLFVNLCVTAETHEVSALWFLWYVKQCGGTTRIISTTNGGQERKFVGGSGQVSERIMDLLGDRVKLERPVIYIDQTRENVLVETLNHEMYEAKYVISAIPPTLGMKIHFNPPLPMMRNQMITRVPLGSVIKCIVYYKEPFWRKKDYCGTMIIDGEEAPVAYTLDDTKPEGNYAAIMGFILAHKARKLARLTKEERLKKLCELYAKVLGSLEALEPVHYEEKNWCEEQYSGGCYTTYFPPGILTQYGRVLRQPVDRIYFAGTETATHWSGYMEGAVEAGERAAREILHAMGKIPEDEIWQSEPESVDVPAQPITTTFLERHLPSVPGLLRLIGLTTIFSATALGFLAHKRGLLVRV
# T1 sequence (O42275 whole entry): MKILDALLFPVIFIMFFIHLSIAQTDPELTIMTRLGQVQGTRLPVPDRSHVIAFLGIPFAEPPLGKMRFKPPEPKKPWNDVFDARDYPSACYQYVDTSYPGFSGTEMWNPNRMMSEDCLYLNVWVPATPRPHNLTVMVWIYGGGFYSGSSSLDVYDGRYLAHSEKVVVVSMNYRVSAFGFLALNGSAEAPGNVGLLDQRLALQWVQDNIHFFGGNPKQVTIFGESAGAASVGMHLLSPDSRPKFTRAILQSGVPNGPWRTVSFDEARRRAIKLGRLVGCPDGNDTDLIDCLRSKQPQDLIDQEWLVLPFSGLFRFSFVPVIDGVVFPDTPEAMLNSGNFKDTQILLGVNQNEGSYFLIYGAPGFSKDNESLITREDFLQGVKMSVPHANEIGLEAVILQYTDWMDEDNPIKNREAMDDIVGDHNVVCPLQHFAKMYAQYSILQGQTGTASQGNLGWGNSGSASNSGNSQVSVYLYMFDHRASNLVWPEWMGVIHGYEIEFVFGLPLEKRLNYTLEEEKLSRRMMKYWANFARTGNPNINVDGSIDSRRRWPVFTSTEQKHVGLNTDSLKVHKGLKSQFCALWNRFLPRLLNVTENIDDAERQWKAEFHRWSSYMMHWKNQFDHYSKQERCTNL
structure (smiles),measurement,setting,value
C#CCN(C)Cc1cc2cc(OC)c(O)cc2oc1=O,IC50,Acetylcholinesterase [1],2780 to 14400 nM
C#CCSC[C@@H](N)C(=O)NCCCNc1c2c(nc3cc(Cl)ccc13)CCCC2,IC50,Acetylcholinesterase [2],560 nM
C#CCSCC(NC(=O)CCCNc1c2c(nc3cc(Cl)ccc13)CCCC2)C(=O)Nc1nc2ccccc2s1 (stereo unspecified),IC50,Acetylcholinesterase [2],250 nM
same,inhibition,[3],24.1%
same,inhibition,[4],37.6%
C=CCSCC(NC(=O)CCCNc1c2c(nc3ccccc13)CCCC2)C(=O)Nc1nc2ccccc2s1 (stereo unspecified),IC50,Acetylcholinesterase [2],250 to 280 nM
C#CCN(C)Cc1cc2ccc(OC)cc2oc1=O,IC50,Acetylcholinesterase [1],2780 to 14400 nM
C#CCSCC(NC(=O)CCCCCNc1c2c(nc3cc(Cl)ccc13)CCCC2)C(=O)Nc1nc2ccccc2s1 (stereo unspecified),IC50,Acetylcholinesterase [2],250 to 280 nM
C#CCN(C)c1nc(NCCCCC2CCN(Cc3ccccc3)CC2)c(C#N)cc1C#N,IC50,Cholinesterase [5],600 nM
same,IC50,Acetylcholinesterase [6],1.1 nM
C#CCNCCNc1c2c(nc3ccccc13)CCCC2,IC50,Acetylcholinesterase [7],226 nM
C=CCSC[C@@H](N)C(=O)NCCCNc1c2c(nc3cc(Cl)ccc13)CCCC2,IC50,Acetylcholinesterase [2],300 nM
C#CCSCC(NC(=O)CCCCCNc1c2c(nc3ccccc13)CCCC2)C(=O)Nc1nc2ccccc2s1 (stereo unspecified),IC50,Acetylcholinesterase [2],250 to 280 nM
C#CCN[C@@H]1CCc2ccc(OC(=O)N(C)CC)cc21 [LADOSTIGIL],inhibition at 26 mg/kg,[8],70%
same,inhibition at 26 mg/kg,[9],70%
C#CCN(C)Cc1cc2ccccc2oc1=O,IC50,Acetylcholinesterase [1],2780 to 14400 nM
C=CCSC[C@@H](N)C(=O)NCCCNc1c2c(nc3ccccc13)CCCC2,IC50,Acetylcholinesterase [2],880 nM
C#CCSC[C@@H](N)C(=O)NCCCCNc1c2c(nc3ccccc13)CCCC2,IC50,Acetylcholinesterase [2],1210 nM
C#CCNc1c2c(nc3ccccc13)CCCC2,IC50,Cholinesterase [10],77.6 nM
same,IC50,Acetylcholinesterase [11],50.7 nM
same,IC50,Acetylcholinesterase [7],51.3 to 106 nM
C#CCNc1c2c(nc3cc(Cl)ccc13)CCCC2,IC50,Cholinesterase [10],83.5 nM
same,IC50,Acetylcholinesterase [11],9.4 nM
same,IC50,Acetylcholinesterase [7],11.2 nM
CCN(C)C(=O)Oc1cccc([C@H](C)N(C)C)c1,inhibition,Acetylcholinesterase [12],40%
same,inhibition,[13],25%
Nc1c2c(nc3cc(Cl)ccc13)CCCC2,IC50,Acetylcholinesterase [7],23.5 nM
C#CCSCC(NC(=O)CCCNc1c2c(nc3ccccc13)CCCC2)C(=O)Nc1nc2ccccc2s1 (stereo unspecified),IC50,Acetylcholinesterase [2],250 to 280 nM
same,inhibition,[3],77.2%
C=CCSCC(NC(=O)CCCCCNc1c2c(nc3ccccc13)CCCC2)C(=O)Nc1nc2ccccc2s1 (stereo unspecified),IC50,Acetylcholinesterase [2],250 to 280 nM
same,inhibition,[3],78.2%
C#CCN(CC#C)CCNc1c2c(nc3ccccc13)CCCC2,IC50,Cholinesterase [10],353 nM
same,IC50,Acetylcholinesterase [7],339 nM
C#CCN(C)Cc1cc2cc(OCCCC3CCN(Cc4ccccc4)CC3)ccc2n1C,IC50,[14],5.44 nM
same,IC50,[15],177 nM
C=CCSCC(NC(=O)CCCNc1c2c(nc3cc(Cl)ccc13)CCCC2)C(=O)Nc1nc2ccccc2s1 (stereo unspecified),IC50,Acetylcholinesterase [2],250 to 280 nM
same,inhibition,[3],31.6%
same,inhibition,[4],56.6%
C=CCSCC(NC(=O)CCCCCNc1c2c(nc3cc(Cl)ccc13)CCCC2)C(=O)Nc1nc2ccccc2s1 (stereo unspecified),IC50,Acetylcholinesterase [2],280 nM
C#CCN(CC#C)c1c2c(nc3cc(Cl)ccc13)CCCC2,IC50,Cholinesterase [10],5380 nM
same,IC50,Acetylcholinesterase [7],884 nM
